Source: doi:10.1101/350942v2 (biorxiv, 2018)

Biological target: Tv2483 (Treponema vincentii, UniProt S3MDF0, R115A)
Experiment: biochemical

SMILES: N=C(N)NCCC[C@H](N)C(=O)O [L-arginine]
- Kd: 6.3 µM
